# Reference: US6054437A, “Method for inducing death of neoplastic cells using piperazine derivatives” (Hitachi Chemical Research Center, Inc., priority 1997, dated 2000)
# Entries after “also recorded” stand apart in the source; their conditions may differ. Counter-ions that a name gives are not always drawn. Where a SMILES comes first, the peptide text is derived from it. [ ]: non-standard residue; d: D form. Nle = CCCC[C@H](N)C(=O)O
# Columns and labels:
# [1] = in vivo; cited from earlier work
# [2] = test system: cancer cells having multidrug resistance; experiment: Induction of cell death in cancer / multidrug-resistant cancer cells (comparison compounds); type: cell-based; conditions: data omitted
# From the text: The specifically defined present piperazine derivatives having epoxy groups are believed to work through an epoxide group, but E-64 also contains an epoxide group. […] It is believed that not only epoxy group but also a piperazine ring are essential to induction of cell death in cancer. […] Other compounds having similar structures to the present piperazine derivatives, with respect to piperazine rings when present, and epoxy groups, have been tested (data omitted here), but no significant effect was observed, meaning that surprising and unexpected effects on induction of cell death in cancer, i.e., reversing mdr and in inducing death of cancer cells without significant toxicity to normal tissues, which appear to be pharmacologically beyond prevention of metastasis in cancer, are found in the specifically defined present compounds.
# [3] = test system: HS-578T (breast); experiment: Cancer cell death assay (LDH release), HS-578T; type: cell-based, human; conditions: for anti-neoplastic activity (LDH release) / potency compared to NCO-700: dose response (FIG. 7)
# Protocol: (§1) 1. Cancer Cell Death Assay
# (§2) Cell death was measured quantitatively by the release of a marker intracellular enzyme, lactate dehydrogenase (LDH), from damaged or killed cells. LDH released into the extracellular fluid, was measured 24 hours after drug exposure to cancer cells and the enzyme activity was determined by the method of Decker et al. (J. Immunolog Methods 15:61-99, 1988).
# A series of analogs related to NCO-700 were assayed in the cancer cell death assay. […] It should be stressed that these analogs were tested alone, without any added chemotherapeutic agent.
# Based on Experiment 1 above, the anti-cancer activity of NCO-700, TOP-008, and analogs, TOP-201, 202, 203, 204, 205, 206, 207, and 007, was tested in cancer cell death assays of human cancer cell line HS-578T. In FIGS. 34 (1,000 cells/well) and 35 (1,500 cells/well), a bar graph indicates the activity of a particular analog as measured by the % LDH released (DMSO, dimethyl sulfoxide=control), with higher values of LDH released indicating greater anti-neoplastic activity. All analogs were tested at a concentration of 25 μM.
# [4] = test system: pancreatic cancer cell lines ASPC-1 and HS-766T; experiment: Cancer cell death assay (LDH release), pancreatic lines; type: cell-based, human; conditions: 25 μM, 24 hours
# Protocol: as §2
# As described in Experiment 1, the cancer cell death assays were performed to measure anti-neoplastic activity of the compounds, NCO-700, TOP-001, TOP-003, TOP-005, TOP-006, TOP-008, TOP-009, TOP-010, TOP-012, TOP-013, TOP-015, and TOP-017.
# The following cell lines were obtained from the American Type Tissue Culture Laboratory and cultured according to their specifications: Human pancreatic cancer cell lines ASPC-1 and HS-766T.
# The results of the experiments are shown in FIG. 32, where a bar graph indicates the activity of a particular analog as measured by the % LDH release stimulated by each analog for 24 hours, with higher values of LDH released indicating greater anti-neoplastic activity (apoptosis). All analogs were tested at a concentration of 25 μM.
# [5] = test system: epidermoid carcinoma A431 cells; conditions: cited from earlier work
# [6] = test system: cells; experiment: Long-term assay (cell survival assay), toxicity to cells; type: cell-based; conditions: long-term assays (cell survival assay)
# Protocol: (§3) Cell survival was assayed in cultured tumor cells. From 500-1000 cells per well were plated in 24-welled culture dishes and exposed to drug for seven days. After drug exposure, a computerized cell imaging technique was utilized to ascertain the number of viable cells remaining in each culture. From the data, survival curves were plotted and a ED50 (drug concentration that permits 50% cell survival) were calculated.
# [7] = test system: WIDR (colon); experiment: Cancer cell survival assay, WIDR; type: cell-based, human; conditions: FIG. 16 versus FIG. 31
# Protocol: as §3
# The cancer cell survival assay is an important additional in vitro assay to assess the anti-neoplastic activity of compounds as the cells are given a prolonged exposure (seven days) to the drug. FIGS. 9-16 show the effect of increasing the dose of NCO-700 on the survival of a number of cancer cell lines. […] In the figures, the vertical axis is the object area, which is the number of surviving cancer cells calculated by a computer.
# (§4) FIGS. 26-31 show the effect of increasing the dose of TOP-008 against a number of cancer cell lines. […] For example, if the activity of NCO-700 and TOP-008 are compared against the human colon cancer cell line WIDR (FIG. 16 in Experiment 1 versus FIG. 31) it is seen that the effective dose of TOP-008 is much lower in this particular assay.
# [8] = test system: colon cancer cell lines; experiment: Cancer cell death assay (LDH release), colon lines; type: cell-based, human; conditions: compound alone, 24 hours
# Protocol: as §1, §2
# (§5) All cell lines used in the present study were obtained from the American Type Tissue Culture Laboratory and cultured according to their specifications. All were human cancer lines unless otherwise noted. The following cell lines and their tissue of origin used in our studies were:
# (§6) The first assays performed measured the anti-neoplastic activity of NCO-700, alone, in cell death assays of a wide variety of human cancer cells. The results of these experiments are shown in FIGS. 1-6, where a dose-response curve of NCO-700 versus % LDH release is plotted, with higher values of LDH released indicating greater anti-neoplastic activity (apoptosis).
# (§7) In FIG. 8, a dose-response curve is shown of the effect of TOP-008 on the killing of breast, prostate and colon cell lines.
# [9] = test system: prostate cancer cell lines; experiment: Cancer cell death assay (LDH release), prostate lines; type: cell-based, human; conditions: compound alone, 24 hours
# Protocol: as §1, §2, §5, §6, §7
# [10] = test system: HS-578T (breast); experiment: Apoptosis detection assay (annexin V / propidium iodide, flow cytometry); type: cell-based, human; conditions: 50 μM and 25 μM (FIG. 36)
# Protocol: Anti-neoplastic activity of TOP-008 was tested using a commercially available kit, Apoptosis Detection Kit, from R & D SYSTEMS (Minnesota) in which annexin V, a member of the calcum and phospholipid binding proteins, is used to detect apoptosis, following the protocol recommended by the manufacturer. TOP-008 was tested at a concentration of 50 μM, using Human breast cancer cell line HS-578T. Cells were washed in cold PBS twice and resuspended in a small volume of 1× binding buffer. Fluorescein-labeled annexin V and propidium iodide were added to the cells. The cells expressing phosphatidylserine on the outer leaflet of cell membranes bind annexin V and cells with a compromised cell membrane allow propidium iodide to bind to the cellular DNA. The resulting cells when immediately analyzed by flow cytometry can present three potential populations of cells: live cells which will not stain with either fluorochrome, necrotic cells which will stain with both fluorochrome, and cells undergoing apoptosis which will stain only with the annexin V-FITC reagent. Analysis was performed on cytometers equipped with a single laser emitting excitation light at 488 nm. The annexin V-FITC-generated signal was detected in the FITC signal detector (FL1). The results are shown in FIG. 36 in which the […]. […]
# [11] = test system: breast cancer cell lines; experiment: Cancer cell death assay (LDH release), breast lines; type: cell-based, human; conditions: compound alone, 24 hours
# Protocol: as §1, §2, §5, §6, §7
# [12] = test system: PC-3 (prostate tumor cell line); experiment: Apoptosis induced DNA fragmentation (agarose gel); type: cell-based, human; conditions: PC-3, 25 μM, 48 hours
# Protocol: PC-3, a prostate tumor cell line, was treated with 25 μM TOP-008, 50 μM NCO-700, or water for 48 hours. The DNA from each sample was purified by phenol extraction, and the fragmentation was resolved on an agarose gel.
# [13] = test system: cancer cell lines; experiment: Cancer cell survival assay, a number of cancer cell lines; type: cell-based, human; conditions: FIGS. 26-31, alone
# Protocol: as §3, §4
smiles,measurement,setting,value
COc1cccc2c1C(=O)c1c(O)c3c(c(O)c1C2=O)C[C@@](O)(C(=O)CO)C[C@@H]3O[C@H]1C[C@H](N)[C@H](O)[C@H](C)O1 [adriamycin],side effects,[1],"inevitable side effects such as hair loss, weight loss, and liver and kidney damage"
CC(C)C[C@H](NC(=O)[C@H]1O[C@@H]1C(=O)O)C(=O)NCCCCN=C(N)N [E-64],effectiveness in cancer cells having multidrug resistance / induction of cell death,[2],not to be particularly effective in cancer cells having multidrug resistance
"CC(C)C[C@H](NC(=O)[C@@H]1O[C@H]1C(=O)OCc1ccccc1)C(=O)N1CCN(C/C=C/c2ccccc2)CC1 [TOP-009, Bis[benzyl (2R,3R)-3-[(S)-3-methyl-1-[4-(3-phenyl-2-propenyl)piperazin-1-ylcarbonyl]butylcarbamoyl]oxirane-2-carboxylate] Sulfate]",anti-neoplastic activity (LDH release) / potency compared to NCO-700,"[3]; HS-578T, alone",higher potency
same,anti-neoplastic activity (% LDH release) compared with NCO-700,[4],significantly greater activity than NCO-700 itself
CCOC(=O)[C@H]1O[C@@H]1C(=O)N[C@@H](CC(C)C)C(=O)NCCC(C)C [E-64-d],cell cycle arrest,"[5]; A431 cells, chemically defined medium",arrested at mitotic metaphase
same,effect on growth of cancer cells,[5]; Shoji-Kasai et al.,slows the growth of cancer cells
"CCCC[C@@H](C=O)NC(=O)[C@H](CC(C)C)NC(=O)[C@H](CC(C)C)NC(C)=O [Calpain Inhibitor 1, N-acetyl-leu-leu-norleucinal] (Ac-Leu-Leu-[Nle]-aldehyde)",toxicity to the cells,[6],toxic to the cells
same,toxicity to the cells,[6]; listed as Calpain inhibitor I,its toxicity may be an obstacle
same,effectiveness in cancer cells having multidrug resistance / induction of cell death,[2],slightly effective
"CC(C)C[C@H](NC(=O)[C@@H]1O[C@H]1C(=O)Oc1ccccc1)C(=O)N1CCN(C/C=C/c2ccccc2)CC1 [TOP-013, Bis[phenyl (2R,3R)-3-[(S)-3-methyl-1-[4-(3-phenyl-2-propenyl)piperazin-1-ylcarbonyl]butylcarbamoyl]oxirane-2-carboxylate] Sulfate]",anti-neoplastic activity (LDH release) / potency compared to NCO-700,"[3]; HS-578T, alone",higher potency
"CCOC(=O)[C@@H]1O[C@H]1C(=O)N[C@@H](CC(C)C)C(=O)N1CCN(C/C=C/c2ccccc2)CC1 [TOP-008, Bis[ethyl (2R,3R)-3-[(S)-3-methyl-1-[4-(3-phenyl-2-propenyl)piperazin-1-ylcarbonyl]butylcarbamoyl]oxirane-2-carboxylate] Sulfate]",effective dose compared with NCO-700,[7],much lower
same,anti-neoplastic activity (LDH release),[8],excellent activity
same,anti-neoplastic activity (% LDH released),"[3]; HS-578T, 25 μM, 1,000 and 1,500 cells/well (FIGS. 34, 35)",very good anti-neoplastic activity
same,kill rate of breast cancer cells relative to NCO-700,"[3]; HS-578T, alone",approximately three-fold
same,anti-neoplastic activity (LDH release) / potency compared to NCO-700,"[3]; HS-578T, alone",higher potency; also recorded: highest potency
same,anti-neoplastic potency relative to NCO-700,[3]; conclusion of Experiment 1,three-fold
same,anti-neoplastic activity (LDH release),[9],excellent activity
same,induction of apoptosis,[10],induced apoptosis in human breast cancer cells
same,anti-neoplastic activity (LDH release),[11],excellent activity
same,anti-neoplastic activity (% LDH release) compared with NCO-700,[4],significantly greater activity than NCO-700 itself
same,DNA fragmentation,[12],significant DNA fragmentation
same,anti-neoplastic activity (cell survival),[13],highly active anti-neoplastic agent (apoptosis agent) and in some cases is much more active than NCO-700
